We go through 3 molecules from PubChem BioAssay AID1963854 (Molecular Pharmacology Branch, DTP, NCI, 2024).

This assay relates to 186277-243-T-J2-PDC complex spheroid viability. The assay can be described thus: Anticancer human tumor 186277-243-T-J2-PDC patient-derived colon adenocarcinoma cell line growth inhibition [POLQ]. The settings on record: for viability, T/C: stronger effect = lower value. The procedure: Multicellular complex tumor spheroid response to Polymerase (POL) inhibitors (novobiocin, ART-558, RP6685) in combination with a variety of drugs and investigational agents in selected tumor cell lines
The POL inhibitors (novobiocin, ART-558, and RP6685) were evaluated both individually and in combination with standard of care and investigational anticancer small molecules within a complex spheroid model of solid tumors. . Complex spheroids include a stromal component modeled by human endothelial cells (HUVEC) and fibroblasts modeled by human mesenchymal stem cells (MSCs). The concentration ranges selected for each drug and investigational agent were based upon clinically achievable concentrations if the clinical Cmax of the agent was known.
Compounds. The drugs and investigational agents: novobiocin (NSC847541), ART-558 (NSC835418), RP-6685 (NSC848927), peposertib (NSC802822), ceralasertib (NSC780249), elimusertib (NSC800525), camonsertib (NSC841442), AZD-1390 (NSC803789), olaparib (NSC753686), talazoparib (NSC767125), rucaparib (NSC756644), sotorasib (NSC818433), MRTX-1133 (NSC836407), SN-38 (NSC673596), topotecan (NSC609699), epotoside (NSC141540), doxorubicin (NSC123127), gemcitabine (NSC613327), 5-fluorouracil (NSC19893), paclitaxel (NSC125973), vemurafenib (NSC761431), MSA-2 (NSC828583), SN-011 (NSC837082), adavosertib (NSC754352), prexasertib (NSC758257), carboplatin (NSC241240) and oxaliplatin (NSC266046), were obtained from the National Cancer Institute (NCI) Developmental Therapeutics Program Chemical Repository (21). The FDA-approved anticancer drug set is available from the Developmental Therapeutics Program at https://dtp.cancer.gov/organization/dscb/obtaining/. […] The stock solutions were prepared in dimethyl sulfoxide (DMSO, Sigma-Aldrich, St. Louis, MO, cat. D2650), except for the platinum compounds which were prepared in saline (Quality Biological, Gaithersburg, MD, cat. 114-055-101), at 800-fold the tested concentration and stored at -70 degrees C prior to their use. All drugs and investigational agents were tested over a range starting from a high concentration at or near the clinical Cmax and decreasing in half-log increments. If the clinical Cmax for an agent had not been determined, the highest concentration tested was 10 microM, except for SN-38, which was tested at a high concentration of 1 microM.
Cell Culture. All cells were maintained in an incubator at 37 degrees C and 5% CO2 with 95% humidity. The PDC lines were cultured according to standard operating procedures established by the NCI PDMR (https://pdmr.cancer.gov). Table 3 of the manuscript, lists the cell lines along with the number of the three cell types plated to form the mct-spheroids and media for tumor cell growth. After thawing, all PDC lines, except 997537-175-T-J1-PDC and 415267-285-R-J2-PDC, were cultured in Matrigel-coated flasks prepared with a working solution of 1X Ham's F-12 nutrient mix, without supplementation (Thermo Fisher Scientific, cat. 11765054), 100 U/mL penicillin-streptomycin (Thermo Fisher Scientific, cat. 15140122), and 2.5% Matrigel (Corning Inc., Corning, NY, cat. 354248) for the first three passages. The two PDC lines 997537-175-T-J1-PDC and 415267-285-R-J2-PDC were cultured on uncoated flasks. The 857933-349-R-J2-PDC line was cultured in 6C/Colon 1B media containing advanced DMEM/F-12 (Thermo Fisher Scientific, cat. 12634028), 10 mM HEPES (Thermo Fisher Scientific, cat. 15630080), 1X GlutaMAX supplement (Thermo Fisher Scientific, cat. 35050061), 0.1 mg/mL primocin (InvivoGen, San Diego, CA, cat. ant-pm-2), 10% defined fetal bovine serum, heat inactivated (HyClone Laboratories Inc., Logan, UT, cat. SH30070.03HI), 50% L-WRN conditioned media (ATCC, cat. CRL-3276), 1.25 mM N-Acetyl-L-cysteine (Sigma-Aldrich, cat. A9165), 10 mM nicotinamide (Sigma-Aldrich, cat. N0636), 1X B-27 supplement (Thermo Fisher Scientific, cat. 17504044), 1X N-2 supplement (Thermo Fisher Scientific, cat. […]

The structures appear in SMILES notation. “And” between values parts separate entries of the source, which are not always exact repeats. Equal entries are not always repeated.
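Further: spheroids exposed to compounds for seven days.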

As for `C#Cc1c(F)ccc2cc(O)cc(-c3ncc4c(N5CC6CCC(C5)N6)nc(OCC56CCCN5CC(F)C6)nc4c3F)c12` (stereo unspecified) + Nc1ccc(C#CCN(C(=O)Cc2ncc(C(F)(F)F)cc2C(F)(F)F)c2ccc(F)cc2)nn1, the IC50 – broadly, the point on the concentration scale where inhibition reaches its midpoint – turned out to be 315 nM (curve of first compound, second compound 0.0316 µM); 264 nM (curve of first compound, second compound 0.1 µM); 262 nM (curve of first compound, second compound 0.316 µM); 288 nM (curve of first compound, second compound 1 µM); 178 nM (curve of first compound, second compound 3.16 µM); 122 nM (curve of first compound, second compound 10 µM). Moreover, the viability, T/C (commonly the ratio of treated to control) is, setting by setting: (second compound 0.0316 µM, first compound 0.0316 µM) 91.2%; (second compound 0.0316 µM, first compound 0.1 µM) 96.2%; (second compound 0.0316 µM, first compound 0.316 µM) 48.5%; (second compound 0.0316 µM, first compound 1 µM) 25.6%; (second compound 0.0316 µM, first compound 3.16 µM) 15.5%; (second compound 0.0316 µM, first compound 10 µM) 10.8%. Besides, the viability, T/C was 116% (second compound 0.1 µM, first compound 0.0316 µM); 93.6% (second compound 0.1 µM, first compound 0.1 µM); 40.6% (second compound 0.1 µM, first compound 0.316 µM); 22.1% (second compound 0.1 µM, first compound 1 µM); 19.1% (second compound 0.1 µM, first compound 3.16 µM); 10.1% (second compound 0.1 µM, first compound 10 µM). For the same molecule, the viability, T/C (second compound 0.316 µM, first compound 0.0316 µM) is 83.5%; the viability, T/C (second compound 0.316 µM, first compound 0.1 µM) was 97.2%; the viability, T/C (second compound 0.316 µM, first compound 0.316 µM) was 42%; the viability, T/C (second compound 0.316 µM, first compound 1 µM) was 27.4%; the viability, T/C (second compound 0.316 µM, first compound 3.16 µM) was 16.1%; the viability, T/C (second compound 0.316 µM, first compound 10 µM) is 10.7%. Besides, the viability, T/C is, setting by setting: (second compound 1 µM, first compound 0.0316 µM) 103%; (second compound 1 µM, first compound 0.1 µM) 91%; (second compound 1 µM, first compound 0.316 µM) 44.2%; (second compound 1 µM, first compound 1 µM) 22.3%; (second compound 1 µM, first compound 3.16 µM) 12.9%; (second compound 1 µM, first compound 10 µM) 8.94%. Besides, the viability, T/C (second compound 3.16 µM, first compound 0.0316 µM) is 87.5%; the viability, T/C (second compound 3.16 µM, first compound 0.1 µM) was 70.9%; the viability, T/C (second compound 3.16 µM, first compound 0.316 µM) is 28.8%; the viability, T/C (second compound 3.16 µM, first compound 1 µM) was 15.3%; the viability, T/C (second compound 3.16 µM, first compound 3.16 µM) is 12.5%; the viability, T/C (second compound 3.16 µM, first compound 10 µM) is 8.73%. Also, the viability, T/C is 106% (second compound 10 µM, first compound 0.0316 µM); 55.2% (second compound 10 µM, first compound 0.1 µM); 25% (second compound 10 µM, first compound 0.316 µM); 15% (second compound 10 µM, first compound 1 µM); 13% (second compound 10 µM, first compound 3.16 µM); 8.18% (second compound 10 µM, first compound 10 µM).
As for `COc1cc(C2c3cc4c(cc3C(OC3OC5COC(C)OC5C(O)C3O)C3COC(=O)C23)OCO4)cc(OC)c1O` (stereo unspecified), the viability, T/C was 99.9% and 94.4% and 99.1% (compound 0.0316 µM); 111% and 100% and 118% (compound 0.1 µM); 82.8% and 130% and 71.7% (compound 0.316 µM); 48.1% and 89.2% and 45.2% (compound 1 µM); 30.1% and 59.8% and 27.6% (compound 3.16 µM); 14.3% and 30.9% and 11.9% (compound 10 µM). For the same molecule, the IC50 (curve of compound) is 989 nM and 4470 nM and 810 nM.
Regarding `Cn1ncnc1[C@H]1c2n[nH]c(=O)c3cc(F)cc(c23)N[C@@H]1c1ccc(F)cc1`, the viability, T/C was 102% and 96.7% and 107% (compound 0.000316 µM); 100% and 97.4% and 94.3% (compound 0.001 µM); 104% and 101% and 97% (compound 0.00316 µM); 118% and 100% and 105% (compound 0.01 µM); 118% and 137% and 114% (compound 0.0316 µM); 109% and 124% and 103% (compound 0.1 µM). Further, the IC50 (curve of compound) is over 100 nM.
